# Measurements as given in ChEMBL document CHEMBL3885861, “Open TG-GATES”.
# Species: Rattus norvegicus
# Assay: Open TG-GATES - Regimen: Daily Repeat
# Type: toxicity, organism-based, Sprague-Dawley
# Design: regimen Daily Repeat, gender Male, age 6 weeks
# Conditions: in vivo, po, 300 mg/kg, route gavage, dose level Middle; for APTT / Bas / Eos / Fbg / Hb / Ht / Lym / MCH / MCHC / MCV / Mono / Neu / PT / Plat / RBC / Ret / WBC: tissue Blood; for KIDNEY_L / KIDNEY_R / KIDNEY_TOTAL: tissue Kidney; for LIVER: tissue Liver; for A/G / ALP / ALT / AST / BUN / CRE / Ca / Cl / DBIL / GLC / IP / K / LDH / Na / PL / RALB / TBIL / TC / TG / TP / gamma-GTP: tissue Plasma
smiles,measurement,setting,value
O=C(N[C@H](CO)[C@H](O)c1ccc([N+](=O)[O-])cc1)C(Cl)Cl [CHLORAMPHENICOL],TERMINAL_BW,"72 h, time 3 day",251.2 g
same,APTT,"72 h, time 3 day",16.2 s
same,Bas,"72 h, time 3 day",0%
same,Eos,"72 h, time 3 day",1%
same,Fbg,"72 h, time 3 day",294.6 mg/dL
same,Hb,"72 h, time 3 day",13.3 g/dL
same,Ht,"72 h, time 3 day",40.8%
same,Lym,"72 h, time 3 day",83.4%
same,MCH,"72 h, time 3 day",21.2 pg
same,MCHC,"72 h, time 3 day",32.6%
same,MCV,"72 h, time 3 day",65.1 fL
same,Mono,"72 h, time 3 day",3.4%
same,Neu,"72 h, time 3 day",11.6%
same,PT,"72 h, time 3 day",14.4 s
same,Plat,"72 h, time 3 day",128.6 x10_4/uL
same,RBC,"72 h, time 3 day",627.6 x10_4/ul
same,Ret,"72 h, time 3 day",4.4%
same,WBC,"72 h, time 3 day",77.4 x10_2/uL
same,KIDNEY_L,"72 h, time 3 day",1.1 g
same,KIDNEY_R,"72 h, time 3 day",1.1 g
same,KIDNEY_TOTAL,"72 h, time 3 day",2.1 g
same,LIVER,"72 h, time 3 day",12.1 g
same,A/G,"72 h, time 3 day",0.9
same,ALP,"72 h, time 3 day",1601.8 IU/L
same,ALT,"72 h, time 3 day",49.4 IU/L
same,AST,"72 h, time 3 day",72.8 IU/L
same,BUN,"72 h, time 3 day",16.6 mg/dL
same,CRE,"72 h, time 3 day",0.2 mg/dL
same,Ca,"72 h, time 3 day",10.9 mg/dL
same,Cl,"72 h, time 3 day",105.6 meq/L
same,DBIL,"72 h, time 3 day",0.01 mg/dL
same,GLC,"72 h, time 3 day",169.2 mg/dL
same,IP,"72 h, time 3 day",7.6 mg/dL
same,K,"72 h, time 3 day",4.2 meq/L
same,LDH,"72 h, time 3 day",84.2 IU/L
same,Na,"72 h, time 3 day",141.2 meq/L
same,PL,"72 h, time 3 day",150.4 mg/dL
same,RALB,"72 h, time 3 day",2.6 g/dL
same,TBIL,"72 h, time 3 day",0.052 mg/dL
same,TC,"72 h, time 3 day",88.4 mg/dL
same,TG,"72 h, time 3 day",66.6 mg/dL
same,TP,"72 h, time 3 day",5.6 g/dL
same,gamma-GTP,"72 h, time 3 day",1 IU/L
same,TERMINAL_BW,"[…], time 7 day",277.3 g
same,TERMINAL_BW,"[…], time 14 day",349.1 g
same,TERMINAL_BW,"[…], time 28 day",411.6 g
same,APTT,"[…], time 7 day",16.9 s
same,Bas,"[…], time 7 day",0%
same,Eos,"[…], time 7 day",1%
same,Fbg,"[…], time 7 day",324 mg/dL
same,Hb,"[…], time 7 day",13.7 g/dL
same,Ht,"[…], time 7 day",42.3%
same,Lym,"[…], time 7 day",78.2%
same,MCH,"[…], time 7 day",20.5 pg
same,MCHC,"[…], time 7 day",32.4%
same,MCV,"[…], time 7 day",63.3 fL
same,Mono,"[…], time 7 day",3.6%
same,Neu,"[…], time 7 day",17%
same,PT,"[…], time 7 day",14.5 s
same,Plat,"[…], time 7 day",120.6 x10_4/uL
same,RBC,"[…], time 7 day",668.6 x10_4/ul
same,Ret,"[…], time 7 day",4.8%
same,WBC,"[…], time 7 day",66.9 x10_2/uL
same,APTT,"[…], time 14 day",14.9 s
same,Bas,"[…], time 14 day",0%
same,Eos,"[…], time 14 day",1.4%
same,Fbg,"[…], time 14 day",307 mg/dL
same,Hb,"[…], time 14 day",14.2 g/dL
same,Ht,"[…], time 14 day",43.7%
same,Lym,"[…], time 14 day",84.8%
same,MCH,"[…], time 14 day",20.5 pg
same,MCHC,"[…], time 14 day",32.5%
same,MCV,"[…], time 14 day",63.1 fL
same,Mono,"[…], time 14 day",2.2%
same,Neu,"[…], time 14 day",11.4%
same,PT,"[…], time 14 day",14.8 s
same,Plat,"[…], time 14 day",123.5 x10_4/uL
same,RBC,"[…], time 14 day",692.8 x10_4/ul
same,Ret,"[…], time 14 day",4.7%
same,WBC,"[…], time 14 day",80 x10_2/uL
same,APTT,"[…], time 28 day",15.7 s
same,Bas,"[…], time 28 day",0%
same,Eos,"[…], time 28 day",1.2%
same,Fbg,"[…], time 28 day",296.2 mg/dL
same,Hb,"[…], time 28 day",15.1 g/dL
same,Ht,"[…], time 28 day",44.3%
same,Lym,"[…], time 28 day",86.8%
same,MCH,"[…], time 28 day",19.7 pg
same,MCHC,"[…], time 28 day",34.1%
same,MCV,"[…], time 28 day",57.8 fL
same,Mono,"[…], time 28 day",1%
same,Neu,"[…], time 28 day",10%
same,PT,"[…], time 28 day",14.7 s
same,Plat,"[…], time 28 day",110.4 x10_4/uL
same,RBC,"[…], time 28 day",768.8 x10_4/ul
same,Ret,"[…], time 28 day",2.1%
same,WBC,"[…], time 28 day",69.9 x10_2/uL
same,KIDNEY_L,"[…], time 7 day",1.2 g
same,KIDNEY_R,"[…], time 7 day",1.2 g
same,KIDNEY_TOTAL,"[…], time 7 day",2.4 g
same,KIDNEY_L,"[…], time 14 day",1.3 g
same,KIDNEY_R,"[…], time 14 day",1.3 g
same,KIDNEY_TOTAL,"[…], time 14 day",2.6 g
same,KIDNEY_L,"[…], time 28 day",1.6 g
same,KIDNEY_R,"[…], time 28 day",1.5 g
same,KIDNEY_TOTAL,"[…], time 28 day",3.1 g
same,LIVER,"[…], time 7 day",14 g
same,LIVER,"[…], time 14 day",16.9 g
same,LIVER,"[…], time 28 day",18.5 g
same,A/G,"[…], time 7 day",0.9
same,ALP,"[…], time 7 day",1464.2 IU/L
same,ALT,"[…], time 7 day",56.8 IU/L
same,AST,"[…], time 7 day",72.8 IU/L
same,BUN,"[…], time 7 day",15 mg/dL
same,CRE,"[…], time 7 day",0.2 mg/dL
same,Ca,"[…], time 7 day",11.3 mg/dL
same,Cl,"[…], time 7 day",106 meq/L
same,DBIL,"[…], time 7 day",0.02 mg/dL
same,GLC,"[…], time 7 day",181.2 mg/dL
same,IP,"[…], time 7 day",7.9 mg/dL
same,K,"[…], time 7 day",4 meq/L
same,LDH,"[…], time 7 day",58.4 IU/L
same,Na,"[…], time 7 day",144.8 meq/L
same,PL,"[…], time 7 day",148.8 mg/dL
same,RALB,"[…], time 7 day",2.7 g/dL
same,TBIL,"[…], time 7 day",0.054 mg/dL
same,TC,"[…], time 7 day",74 mg/dL
same,TG,"[…], time 7 day",102.4 mg/dL
same,TP,"[…], time 7 day",5.7 g/dL
same,gamma-GTP,"[…], time 7 day",1 IU/L
same,A/G,"[…], time 14 day",0.8
same,ALP,"[…], time 14 day",1504.6 IU/L
same,ALT,"[…], time 14 day",51.8 IU/L
same,AST,"[…], time 14 day",75.2 IU/L
same,BUN,"[…], time 14 day",17.4 mg/dL
same,CRE,"[…], time 14 day",0.2 mg/dL
same,Ca,"[…], time 14 day",11.3 mg/dL
same,Cl,"[…], time 14 day",105.2 meq/L
same,DBIL,"[…], time 14 day",0.024 mg/dL
same,GLC,"[…], time 14 day",198.2 mg/dL
same,IP,"[…], time 14 day",7.1 mg/dL
same,K,"[…], time 14 day",4 meq/L
same,LDH,"[…], time 14 day",66.8 IU/L
same,Na,"[…], time 14 day",144 meq/L
same,PL,"[…], time 14 day",137.6 mg/dL
same,RALB,"[…], time 14 day",2.6 g/dL
same,TBIL,"[…], time 14 day",0.052 mg/dL
same,TC,"[…], time 14 day",63.4 mg/dL
same,TG,"[…], time 14 day",93.6 mg/dL
same,TP,"[…], time 14 day",5.8 g/dL
same,gamma-GTP,"[…], time 14 day",1 IU/L
same,A/G,"[…], time 28 day",0.8
same,ALP,"[…], time 28 day",1176.8 IU/L
same,ALT,"[…], time 28 day",43 IU/L
same,AST,"[…], time 28 day",63.8 IU/L
same,BUN,"[…], time 28 day",15 mg/dL
same,CRE,"[…], time 28 day",0.2 mg/dL
same,Ca,"[…], time 28 day",10.8 mg/dL
same,Cl,"[…], time 28 day",105 meq/L
same,DBIL,"[…], time 28 day",0.024 mg/dL
same,GLC,"[…], time 28 day",172.8 mg/dL
same,IP,"[…], time 28 day",6.5 mg/dL
same,K,"[…], time 28 day",3.5 meq/L
same,LDH,"[…], time 28 day",49.2 IU/L
same,Na,"[…], time 28 day",144.6 meq/L
same,PL,"[…], time 28 day",141 mg/dL
same,RALB,"[…], time 28 day",2.8 g/dL
same,TBIL,"[…], time 28 day",0.064 mg/dL
same,TC,"[…], time 28 day",68 mg/dL
same,TG,"[…], time 28 day",69.4 mg/dL
same,TP,"[…], time 28 day",6.1 g/dL
same,gamma-GTP,"[…], time 28 day",1.2 IU/L
